According to patent EP3959993B1, “METHOD FOR SOLVENT FREE PRODUCTION OF AROMA CONCENTRATES” (Symrise AG, priority 2020, dated 2022):

Assays:
[1] = Influence of the amount of NaCl on the distribution between oil phase and water phase (Example 5); type: physicochemical
[2] = Second oil phase obtained by adding NaCl to the water phase (Example 4); type: physicochemical; settings: after separating oil phases I and II
Procedure: Cross linked polystyrene was used as adsorbent material. The volume flux for loading the adsorbent was 300 ml/min.
The adsorbent was heated to 150 °C, the temperature of the applied water steam was 160 °C.
The water steam flux was 10 g/min and was applied for 100 min.
The oil and water phases were separated.
A second oil phase was separated and was collected.

| Molecule | Distribution in [%] between oil phase and water phase after condensation: Oil phase ([1]; NaCl 0%) [%] | Distribution in [%] between oil phase and water phase after condensation: Water phase ([1]; NaCl 0%) [%] | Distribution in [%] between oil phase and water phase after condensation: Oil phase ([1]; NaCl 27.8 %) [%] | Distribution in [%] between oil phase and water phase after condensation: Water phase ([1]; NaCl 27.8 %) [%] | Distribution in [%] between oil phase and water phase after condensation: Oil phase ([1]; NaCl 41.67%) [%] | Distribution in [%] between oil phase and water phase after condensation: Water phase ([1]; NaCl 41.67%) [%] | Distribution in [%] between oil phase and water phase after condensation: Oil phase ([1]; NaCl 55.56 %) [%] | Distribution in [%] between oil phase and water phase after condensation: Water phase ([1]; NaCl 55.56 %) [%] | Distribution in [%] between oil phase and water phase after condensation: Oil phase ([1]; NaCl 69.44 %) [%] | Distribution in [%] between oil phase and water phase after condensation: Water phase ([1]; NaCl 69.44 %) [%] | Distribution in [%] between oil phase and water phase after condensation: Oil phase ([1]; NaCl 83.33 %) [%] | Distribution in [%] between oil phase and water phase after condensation: Water phase ([1]; NaCl 83.33 %) [%] | Loss in the water phase [2] |
| --- | --- | --- | --- | --- | --- | --- | --- | --- | --- | --- | --- | --- | --- |
| CCC(C)CO (centres unmarked) [2-methyl butanol] | 30.8 | 69.2 | 69 | 31 | 64.4 | 35.6 | 70.6 | 29.4 | 82.5 | 17.5 | 82.7 | 17.3 | 17,3% |
| 2-methyl propanol | 17.1 | 82.9 | 29.7 | 70.3 | 41 | 59 | 42.8 | 57.2 | 45.9 | 54.1 | 50.2 | 49.8 | 49,8% |
| CC(=O)OCC(C)C [2-methylpropyl acetate] | 69.3 | 30.7 | 92.1 | 7.9 | 96.2 | 3.8 | 97.5 | 2.5 | 98.6 | 1.4 | 99 | 1 | 1,0% |
| CC(C)CCO [3-methyl butanol] | 28.4 | 71.6 | 39 | 61 | 63.1 | 36.9 | 69.7 | 30.3 | 68.9 | 31.1 | 82.1 | 17.9 | 17,9% |
| O=Cc1ccccc1 [benzaldehyde] | 27 | 73 | 57.5 | 42.5 | 64.7 | 35.3 | 70.4 | 29.6 | 76.7 | 23.3 | 80.8 | 19.2 | 19,2% |
| CC/C=C\CCO [cis-3-hexenol] | 30.6 | 69.4 | 62.8 | 37.2 | 73.3 | 26.7 | 80.5 | 19.5 | 85.6 | 14.4 | 89.2 | 10.8 | 10,8% |

More lines, now with the values ahead:

| Distribution in [%] between oil phase and water phase after condensation: Oil phase ([1]; NaCl 0%) [%] | Distribution in [%] between oil phase and water phase after condensation: Water phase ([1]; NaCl 0%) [%] | Distribution in [%] between oil phase and water phase after condensation: Oil phase ([1]; NaCl 27.8 %) [%] | Distribution in [%] between oil phase and water phase after condensation: Water phase ([1]; NaCl 27.8 %) [%] | Distribution in [%] between oil phase and water phase after condensation: Oil phase ([1]; NaCl 41.67%) [%] | Distribution in [%] between oil phase and water phase after condensation: Water phase ([1]; NaCl 41.67%) [%] | Distribution in [%] between oil phase and water phase after condensation: Oil phase ([1]; NaCl 55.56 %) [%] | Distribution in [%] between oil phase and water phase after condensation: Water phase ([1]; NaCl 55.56 %) [%] | Distribution in [%] between oil phase and water phase after condensation: Oil phase ([1]; NaCl 69.44 %) [%] | Distribution in [%] between oil phase and water phase after condensation: Water phase ([1]; NaCl 69.44 %) [%] | Distribution in [%] between oil phase and water phase after condensation: Oil phase ([1]; NaCl 83.33 %) [%] | Distribution in [%] between oil phase and water phase after condensation: Water phase ([1]; NaCl 83.33 %) [%] | Loss in the water phase [2] | Molecule |
| --- | --- | --- | --- | --- | --- | --- | --- | --- | --- | --- | --- | --- | --- |
| 100 | 0 | 97.2 | 2.8 | 100 | 0 | 100 | 0 | 100 | 0 | 100 | 0 | 0,0% | CCC/C=C/COC(C)=O [trans-2-hexenyl acetate] |
| 51.8 | 48.2 | 84 | 16 | 90.5 | 9.5 | 93.6 | 6.4 | 96.2 | 3.8 | 97.3 | 2.7 | 2,7% | CC/C=C/CCO [trans-3-hexenol] |
| 29.5 | 70.5 | 56.8 | 43.2 | 67.2 | 32.8 | 73.8 | 26.2 | 79.8 | 20.2 | 84.6 | 15.4 | 15,4% | CCCCCO [pentanol] |
| 100 | 0 | 100 | 0 | 100 | 0 | 100 | 0 | 100 | 0 | 100 | 0 | 0,0% | CCCCCC=O [hexanal] |
| 76.2 | 23.8 | 100 | 0 | 100 | 0 | 100 | 0 | 100 | 0 | 100 | 0 | 0,0% | CCCCCCCO [heptanol] |
| 0 | 100 | 0 | 100 | 0 | 100 | 0 | 100 | 0 | 100 | 0 | 100 | – | CCOC(=O)CC [ethyl propionate] |
